Source: patent publication EP4745137A1 (Gluetacs Therapeutics (Shanghai) Co., Ltd., priority 2023, dated 2025)

Legend:
Type in all cases: cell-based
Details in all cases: 24 hours of compound treatment
WEE1 = molecular target: T1, WEE1 (Homo sapiens, UniProt P30291+Q96SW2); assay: Western-blot assay of substrate protein degradation in hPBMCs, WEE1
T1 construct: endogenous in cells; host or cells: hPBMCs (Milecell Biotechnologies)

IKZF1 = molecular target: T2, IKZF1 (Homo sapiens, UniProt Q13422+Q96SW2); assay: Western-blot assay of substrate protein degradation in hPBMCs, IKZF1
T2 construct: endogenous in cells; host or cells: hPBMCs (Milecell Biotechnologies)

IKZF2 = molecular target: T3, IKZF2 (Homo sapiens, UniProt Q96SW2+Q9UKS7); assay: Western-blot assay of substrate protein degradation in hPBMCs, IKZF2
T3 construct: endogenous in cells; host or cells: hPBMCs (Milecell Biotechnologies)

IKZF3 = molecular target: T4, IKZF3 (Homo sapiens, UniProt Q96SW2+Q9UKT9); assay: Western-blot assay of substrate protein degradation in hPBMCs, IKZF3
T4 construct: endogenous in cells; host or cells: hPBMCs (Milecell Biotechnologies)

CK1α = molecular target: T5, CK1α (Homo sapiens, UniProt P48729+Q96SW2); assay: Western-blot assay of substrate protein degradation in hPBMCs, CK1α
T5 construct: endogenous in cells; host or cells: hPBMCs (Milecell Biotechnologies)

GSPT1 = molecular target: T6, GSPT1 (Homo sapiens, UniProt P15170+Q96SW2); assay: Western-blot assay of substrate protein degradation in hPBMCs, GSPT1
T6 construct: endogenous in cells; host or cells: hPBMCs (Milecell Biotechnologies)

[1] = compounds tested at 50 nM and 500 nM (concentration of the table not stated)
[2] = 50 nM and 500 nM tested (concentration behind the class not stated)

T5 sequence (P48729 whole entry): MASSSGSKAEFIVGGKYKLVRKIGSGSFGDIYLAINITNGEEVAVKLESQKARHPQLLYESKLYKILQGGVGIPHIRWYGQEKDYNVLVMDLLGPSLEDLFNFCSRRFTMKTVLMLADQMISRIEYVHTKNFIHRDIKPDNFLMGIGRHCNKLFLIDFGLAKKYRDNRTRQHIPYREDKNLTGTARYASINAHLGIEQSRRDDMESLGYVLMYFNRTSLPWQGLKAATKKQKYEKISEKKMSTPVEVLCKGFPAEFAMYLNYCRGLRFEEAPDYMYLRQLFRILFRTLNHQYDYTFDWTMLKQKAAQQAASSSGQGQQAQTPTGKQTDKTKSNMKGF
T5 sequence (Q96SW2 whole entry): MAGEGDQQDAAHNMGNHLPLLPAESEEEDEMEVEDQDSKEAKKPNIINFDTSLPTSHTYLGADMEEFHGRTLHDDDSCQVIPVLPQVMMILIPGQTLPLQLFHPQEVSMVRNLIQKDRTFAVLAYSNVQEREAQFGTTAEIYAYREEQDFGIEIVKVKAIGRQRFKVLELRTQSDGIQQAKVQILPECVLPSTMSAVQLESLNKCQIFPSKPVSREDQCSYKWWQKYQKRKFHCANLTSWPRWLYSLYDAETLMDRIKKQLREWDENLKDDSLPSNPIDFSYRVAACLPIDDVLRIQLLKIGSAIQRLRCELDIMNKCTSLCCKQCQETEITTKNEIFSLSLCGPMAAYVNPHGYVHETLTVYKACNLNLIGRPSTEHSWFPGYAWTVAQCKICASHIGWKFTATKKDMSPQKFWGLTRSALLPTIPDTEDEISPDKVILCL
T5 sequence (Q16531 whole entry partner): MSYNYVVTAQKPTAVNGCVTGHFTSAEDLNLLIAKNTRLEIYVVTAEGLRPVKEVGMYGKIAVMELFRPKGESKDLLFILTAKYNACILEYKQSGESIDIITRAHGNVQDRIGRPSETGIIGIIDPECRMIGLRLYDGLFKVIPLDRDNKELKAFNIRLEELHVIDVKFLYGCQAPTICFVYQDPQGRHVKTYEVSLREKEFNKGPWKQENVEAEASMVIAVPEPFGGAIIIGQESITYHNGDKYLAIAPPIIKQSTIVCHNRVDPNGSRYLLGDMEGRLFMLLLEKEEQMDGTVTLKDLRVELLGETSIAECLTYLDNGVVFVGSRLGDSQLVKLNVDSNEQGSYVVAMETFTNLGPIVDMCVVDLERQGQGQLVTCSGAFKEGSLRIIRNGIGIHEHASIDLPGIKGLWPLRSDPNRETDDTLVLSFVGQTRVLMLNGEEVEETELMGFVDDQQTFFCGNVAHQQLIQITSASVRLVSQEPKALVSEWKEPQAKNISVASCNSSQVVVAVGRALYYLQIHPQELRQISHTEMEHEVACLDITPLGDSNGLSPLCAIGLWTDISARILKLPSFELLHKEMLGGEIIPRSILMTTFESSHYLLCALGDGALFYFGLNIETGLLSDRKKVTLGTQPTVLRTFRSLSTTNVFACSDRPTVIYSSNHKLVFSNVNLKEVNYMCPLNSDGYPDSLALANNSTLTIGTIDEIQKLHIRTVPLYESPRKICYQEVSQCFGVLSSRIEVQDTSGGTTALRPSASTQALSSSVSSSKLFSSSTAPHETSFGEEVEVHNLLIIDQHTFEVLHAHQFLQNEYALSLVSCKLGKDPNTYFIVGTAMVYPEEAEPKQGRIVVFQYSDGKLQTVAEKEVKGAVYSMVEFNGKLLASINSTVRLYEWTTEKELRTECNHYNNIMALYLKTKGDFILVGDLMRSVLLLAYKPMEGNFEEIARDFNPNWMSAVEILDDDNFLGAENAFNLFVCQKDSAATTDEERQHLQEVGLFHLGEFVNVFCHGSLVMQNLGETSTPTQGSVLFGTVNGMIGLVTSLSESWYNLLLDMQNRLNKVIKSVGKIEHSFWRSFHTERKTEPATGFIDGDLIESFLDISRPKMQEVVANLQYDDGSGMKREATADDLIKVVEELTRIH
T2 sequence (Q13422 whole entry): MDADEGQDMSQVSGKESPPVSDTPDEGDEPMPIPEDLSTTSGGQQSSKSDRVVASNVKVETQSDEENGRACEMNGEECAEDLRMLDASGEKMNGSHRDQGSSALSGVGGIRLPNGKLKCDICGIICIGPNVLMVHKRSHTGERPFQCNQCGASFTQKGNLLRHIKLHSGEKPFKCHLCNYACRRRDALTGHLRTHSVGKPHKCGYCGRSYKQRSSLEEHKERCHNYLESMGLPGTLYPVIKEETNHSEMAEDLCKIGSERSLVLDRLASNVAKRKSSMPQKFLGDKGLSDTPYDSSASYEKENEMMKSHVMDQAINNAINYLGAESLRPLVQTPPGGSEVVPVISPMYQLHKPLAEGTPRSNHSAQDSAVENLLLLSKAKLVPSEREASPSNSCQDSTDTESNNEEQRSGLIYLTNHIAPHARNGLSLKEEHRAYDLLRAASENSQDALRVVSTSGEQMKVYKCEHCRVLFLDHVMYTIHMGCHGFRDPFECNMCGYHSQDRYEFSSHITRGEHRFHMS
T2 sequence (Q96SW2 whole entry): as the sequence (Q96SW2 whole entry) above
T2 sequence (Q16531 whole entry partner): as the sequence (Q16531 whole entry partner) above
T6 sequence (P15170 whole entry): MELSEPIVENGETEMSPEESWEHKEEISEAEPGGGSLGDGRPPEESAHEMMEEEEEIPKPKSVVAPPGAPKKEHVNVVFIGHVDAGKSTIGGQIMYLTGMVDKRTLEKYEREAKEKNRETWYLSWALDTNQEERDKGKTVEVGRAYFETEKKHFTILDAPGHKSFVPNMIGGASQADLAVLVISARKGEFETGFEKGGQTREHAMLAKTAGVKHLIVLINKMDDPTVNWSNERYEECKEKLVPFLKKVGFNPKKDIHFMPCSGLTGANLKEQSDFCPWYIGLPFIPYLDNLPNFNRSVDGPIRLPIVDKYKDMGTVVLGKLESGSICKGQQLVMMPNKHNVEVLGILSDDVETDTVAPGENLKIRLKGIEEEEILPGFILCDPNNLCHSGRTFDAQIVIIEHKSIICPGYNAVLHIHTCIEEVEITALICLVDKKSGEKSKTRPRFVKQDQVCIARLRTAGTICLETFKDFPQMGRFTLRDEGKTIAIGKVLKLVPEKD
T6 sequence (Q96SW2 whole entry): as the sequence (Q96SW2 whole entry) above
T6 sequence (Q16531 whole entry partner): as the sequence (Q16531 whole entry partner) above
T1 sequence (P30291 whole entry): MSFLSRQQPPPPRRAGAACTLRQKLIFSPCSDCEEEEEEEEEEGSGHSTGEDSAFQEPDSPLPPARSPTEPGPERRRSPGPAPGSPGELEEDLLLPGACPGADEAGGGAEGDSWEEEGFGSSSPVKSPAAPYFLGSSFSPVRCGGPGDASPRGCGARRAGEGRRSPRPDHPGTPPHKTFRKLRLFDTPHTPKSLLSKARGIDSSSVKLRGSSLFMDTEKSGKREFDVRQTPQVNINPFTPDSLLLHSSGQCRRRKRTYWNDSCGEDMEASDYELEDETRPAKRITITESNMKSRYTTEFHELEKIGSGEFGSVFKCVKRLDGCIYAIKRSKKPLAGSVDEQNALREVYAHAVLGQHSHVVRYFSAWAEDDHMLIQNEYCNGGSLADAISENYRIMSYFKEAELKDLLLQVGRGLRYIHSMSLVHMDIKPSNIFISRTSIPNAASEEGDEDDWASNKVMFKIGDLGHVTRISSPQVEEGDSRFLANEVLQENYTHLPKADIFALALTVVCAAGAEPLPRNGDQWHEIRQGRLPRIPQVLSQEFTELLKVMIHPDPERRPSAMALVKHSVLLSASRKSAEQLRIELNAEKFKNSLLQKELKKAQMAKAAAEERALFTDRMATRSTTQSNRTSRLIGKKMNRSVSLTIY
T1 sequence (Q96SW2 whole entry): as the sequence (Q96SW2 whole entry) above
T1 sequence (Q16531 whole entry partner): as the sequence (Q16531 whole entry partner) above
T3 sequence (Q9UKS7 whole entry): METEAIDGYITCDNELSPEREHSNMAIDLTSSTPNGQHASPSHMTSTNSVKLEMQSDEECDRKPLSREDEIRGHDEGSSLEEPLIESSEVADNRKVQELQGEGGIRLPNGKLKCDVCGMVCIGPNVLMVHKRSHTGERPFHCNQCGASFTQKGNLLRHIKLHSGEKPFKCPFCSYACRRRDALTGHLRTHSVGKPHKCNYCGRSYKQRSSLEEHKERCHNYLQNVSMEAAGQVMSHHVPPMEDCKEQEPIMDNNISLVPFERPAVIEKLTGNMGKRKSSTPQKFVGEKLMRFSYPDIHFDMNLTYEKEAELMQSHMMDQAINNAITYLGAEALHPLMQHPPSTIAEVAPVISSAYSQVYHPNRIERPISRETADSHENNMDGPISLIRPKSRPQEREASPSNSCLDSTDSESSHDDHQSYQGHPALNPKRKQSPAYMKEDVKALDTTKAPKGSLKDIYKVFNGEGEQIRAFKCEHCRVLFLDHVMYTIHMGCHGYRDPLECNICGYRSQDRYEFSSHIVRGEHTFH
T3 sequence (Q96SW2 whole entry): as the sequence (Q96SW2 whole entry) above
T3 sequence (Q16531 whole entry partner): as the sequence (Q16531 whole entry partner) above

| Structure (SMILES) | Weel substrate protein remaining % (WEE1; [1]) | IKZF 1 substrate protein remaining % (IKZF1; [1]) | IKZF2 substrate protein remaining % (IKZF2; [1]) | IKZF3 substrate protein remaining % (IKZF3; [1]) | CK1a substrate protein remaining % (CK1α; [1]) | GSPT1 substrate protein remaining % (GSPT1; [1]) | Weel substrate protein remaining % (WEE1; [2]) | IKZF 1 substrate protein remaining % (IKZF1; [2]) | IKZF2 substrate protein remaining % (IKZF2; [2]) | IKZF3 substrate protein remaining % (IKZF3; [2]) | CK1a substrate protein remaining % (CK1α; [2]) | GSPT1 substrate protein remaining % (GSPT1; [2]) |
| --- | --- | --- | --- | --- | --- | --- | --- | --- | --- | --- | --- | --- |
| O=C1CCC(N2C(=O)c3ccc(CN4CC=C(c5cccc6c(F)cccc56)CC4)cc3C2=O)C(=O)N1 (stereo not drawn) [GT-06264, 2-(2,6-dioxopiperidin-3-yl)-5-((4-(5-fluoronaphthalen-1-yl)-3,6-dihydropyridin-1(2H)-yl)methyl)isoindoline-1,3-dione] | A (0% ≤ substrate protein remaining % ≤ 80%) | A (0% ≤ substrate protein remaining % ≤ 80%) | A (0% ≤ substrate protein remaining % ≤ 80%) | A (0% ≤ substrate protein remaining % ≤ 80%) | A (0% ≤ substrate protein remaining % ≤ 80%) | A (0% ≤ substrate protein remaining % ≤ 80%) | – | – | – | – | – | – |
| Cc1sc2ncnc(N3CCN(Cc4ccc5c(c4)C(=O)N(C4CCC(=O)NC4=O)C5=O)CC3)c2c1C (stereo not drawn) [GT-06307, 5-((4-(5,6-dimethylthieno[2,3-d]pyrimidin-4-yl)piperazin-1-yl)methyl)-2-(2,6-dioxopiperidin-3-yl)isoindoline-1,3-dione] | – | – | – | – | – | – | B (80%< substrate protein remaining %≤ 100%) | A (0% ≤ substrate protein remaining % ≤ 80%) | A (0% ≤ substrate protein remaining % ≤ 80%) | B (80%< substrate protein remaining %≤ 100%) | A (0% ≤ substrate protein remaining % ≤ 80%) | A (0% ≤ substrate protein remaining % ≤ 80%) |
| O=C1CCC(N2C(=O)c3ccc(CN4CC=C(c5cccs5)CC4)cc3C2=O)C(=O)N1 (stereo not drawn) [GT-06219, 2-(2,6-dioxopiperidin-3-yl)-5-((4-(thiophen-2-yl)-3,6-dihydropyridin-1(2H)-yl)methyl)isoindoline-1,3-dione] | – | – | – | – | – | – | A (0% ≤ substrate protein remaining % ≤ 80%) | B (80%< substrate protein remaining %≤ 100%) | B (80%< substrate protein remaining %≤ 100%) | A (0% ≤ substrate protein remaining % ≤ 80%) | A (0% ≤ substrate protein remaining % ≤ 80%) | A (0% ≤ substrate protein remaining % ≤ 80%) |
| O=C1CCC(N2Cc3c(CN4CCn5c(nnc5C(F)(F)F)C4)cccc3C2=O)C(=O)N1 (stereo not drawn) [GT-04920, 3-(1-oxo-4-((3-(trifluoromethyl)-5,6-dihydro-[1,2,4]triazolo[4,3-a]pyrazin-7(8H)-yl)methyl)isoindolin-2-yl)piperidine-2,6-dione] | A (0% ≤ substrate protein remaining % ≤ 80%) | A (0% ≤ substrate protein remaining % ≤ 80%) | A (0% ≤ substrate protein remaining % ≤ 80%) | A (0% ≤ substrate protein remaining % ≤ 80%) | B (80%< substrate protein remaining %≤ 100%) | A (0% ≤ substrate protein remaining % ≤ 80%) | – | – | – | – | – | – |
| O=C1CCC(N2C(=O)c3ccc(CN4CCC(c5cccc6cnccc56)CC4)cc3C2=O)C(=O)N1 (stereo not drawn) [GT-06266, 2-(2,6-dioxopiperidin-3-yl)-5-((4-(isoquinolin-5-yl)piperidin-1-yl)methyl)isoindoline-1,3-dione] | B (80%< substrate protein remaining %≤ 100%) | B (80%< substrate protein remaining %≤ 100%) | A (0% ≤ substrate protein remaining % ≤ 80%) | B (80%< substrate protein remaining %≤ 100%) | B (80%< substrate protein remaining %≤ 100%) | B (80%< substrate protein remaining %≤ 100%) | – | – | – | – | – | – |
| O=C1CCC(N2C(=O)c3ccc(CN4CCN(c5nsc6ccccc56)CC4)cc3C2=O)C(=O)N1 (stereo not drawn) [GT-06763, 5-((4-(benzo[d]isothiazol-3-yl)piperazin-1-yl)methyl)-2-(2,6-dioxopiperidin-3-yl)isoindoline-1,3-dione] | – | – | – | – | – | – | A (0% ≤ substrate protein remaining % ≤ 80%) | A (0% ≤ substrate protein remaining % ≤ 80%) | B (80%< substrate protein remaining %≤ 100%) | B (80%< substrate protein remaining %≤ 100%) | A (0% ≤ substrate protein remaining % ≤ 80%) | A (0% ≤ substrate protein remaining % ≤ 80%) |
| O=C1CCC(N2C(=O)c3ccc(CN4CCN(c5ccc(Cl)cc5)CC4)cc3C2=O)C(=O)N1 (stereo not drawn) [GT-06275, 5-((4-(4-chlorophenyl)piperazin-1-yl)methyl)-2-(2,6-dioxopiperidin-3-yl)isoindoline-1,3-dione] | – | – | – | – | – | – | B (80%< substrate protein remaining %≤ 100%) | B (80%< substrate protein remaining %≤ 100%) | B (80%< substrate protein remaining %≤ 100%) | B (80%< substrate protein remaining %≤ 100%) | B (80%< substrate protein remaining %≤ 100%) | A (0% ≤ substrate protein remaining % ≤ 80%) |
| O=C1CCC(N2C(=O)c3ccc(CN4CCC(c5ccnc6cc(F)ccc56)CC4)cc3C2=O)C(=O)N1 (stereo not drawn) [GT-06265, 2-(2,6-dioxopiperidin-3-yl)-5-((4-(7-fluoroquinolin-4-yl)piperidin-1-yl)methyl)isoindoline-1,3-dione] | B (80%< substrate protein remaining %≤ 100%) | B (80%< substrate protein remaining %≤ 100%) | A (0% ≤ substrate protein remaining % ≤ 80%) | B (80%< substrate protein remaining %≤ 100%) | B (80%< substrate protein remaining %≤ 100%) | B (80%< substrate protein remaining %≤ 100%) | – | – | – | – | – | – |
| O=C1CCC(N2C(=O)c3ccc(CN4CCN(c5ccccc5)CC4)cc3C2=O)C(=O)N1 (stereo not drawn) [GT-06286, 2-(2,6-dioxopiperidin-3-yl)-5-((4-phenylpiperazin-1-yl)methyl)isoindoline-1,3-dione] | – | – | – | – | – | – | B (80%< substrate protein remaining %≤ 100%) | B (80%< substrate protein remaining %≤ 100%) | B (80%< substrate protein remaining %≤ 100%) | B (80%< substrate protein remaining %≤ 100%) | B (80%< substrate protein remaining %≤ 100%) | A (0% ≤ substrate protein remaining % ≤ 80%) |
| O=C1CCC(N2C(=O)c3ccc(CN4CCC(c5ccnc(F)c5F)CC4)cc3C2=O)C(=O)N1 (stereo not drawn) [GT-06613, 5-((4-(2,3-difluoropyridin-4-yl)piperidin-1-yl)methyl)-2-(2,6-dioxopiperidin-3-yl)isoindoline-1,3-dione] | – | – | – | – | – | – | B (80%< substrate protein remaining %≤ 100%) | B (80%< substrate protein remaining %≤ 100%) | B (80%< substrate protein remaining %≤ 100%) | B (80%< substrate protein remaining %≤ 100%) | B (80%< substrate protein remaining %≤ 100%) | A (0% ≤ substrate protein remaining % ≤ 80%) |
| O=C1CCC(N2C(=O)c3ccc(CN4CCC(c5ccc(Br)cc5)CC4)cc3C2=O)C(=O)N1 (stereo not drawn) [GT-06370, 5-((4-(4-bromophenyl)piperidin-1-yl)methyl)-2-(2,6-dioxopiperidin-3-yl)isoindoline-1,3-dione] | – | – | – | – | – | – | A (0% ≤ substrate protein remaining % ≤ 80%) | B (80%< substrate protein remaining %≤ 100%) | A (0% ≤ substrate protein remaining % ≤ 80%) | A (0% ≤ substrate protein remaining % ≤ 80%) | A (0% ≤ substrate protein remaining % ≤ 80%) | A (0% ≤ substrate protein remaining % ≤ 80%) |
| O=C1CCC(N2C(=O)c3ccc(CN4CCN(c5ccnc(F)c5F)CC4)cc3C2=O)C(=O)N1 (stereo not drawn) [GT-06535, 5-((4-(2,3-difluoropyridin-4-yl)piperazin-1-yl)methyl)-2-(2,6-dioxopiperidin-3-yl)isoindoline-1,3-dione] | – | – | – | – | – | – | B (80%< substrate protein remaining %≤ 100%) | B (80%< substrate protein remaining %≤ 100%) | A (0% ≤ substrate protein remaining % ≤ 80%) | A (0% ≤ substrate protein remaining % ≤ 80%) | B (80%< substrate protein remaining %≤ 100%) | B (80%< substrate protein remaining %≤ 100%) |
| Cc1ccsc1N1CCN(Cc2ccc3c(c2)C(=O)N(C2CCC(=O)NC2=O)C3=O)CC1 (stereo not drawn) [GT-06214, 2-(2,6-dioxopiperidin-3-yl)-5-((4-(3-methylthiophen-2-yl)piperazin-1-yl)methyl)isoindoline-1,3-dione] | – | – | – | – | – | – | B (80%< substrate protein remaining %≤ 100%) | B (80%< substrate protein remaining %≤ 100%) | A (0% ≤ substrate protein remaining % ≤ 80%) | B (80%< substrate protein remaining %≤ 100%) | B (80%< substrate protein remaining %≤ 100%) | A (0% ≤ substrate protein remaining % ≤ 80%) |
